# Data from US20180319810A1, “SUBSTITUTED BRIDGED UREA ANALOGS AS SIRTUIN MODULATORS” (GlaxoSmithKline Intellectual Property (No.2) Limited, priority 2014, published 2018).
# Molecular target: T1, SIRT1 (Homo sapiens, UniProt Q96EB6)
# T1 sequence (Q96EB6 1-747): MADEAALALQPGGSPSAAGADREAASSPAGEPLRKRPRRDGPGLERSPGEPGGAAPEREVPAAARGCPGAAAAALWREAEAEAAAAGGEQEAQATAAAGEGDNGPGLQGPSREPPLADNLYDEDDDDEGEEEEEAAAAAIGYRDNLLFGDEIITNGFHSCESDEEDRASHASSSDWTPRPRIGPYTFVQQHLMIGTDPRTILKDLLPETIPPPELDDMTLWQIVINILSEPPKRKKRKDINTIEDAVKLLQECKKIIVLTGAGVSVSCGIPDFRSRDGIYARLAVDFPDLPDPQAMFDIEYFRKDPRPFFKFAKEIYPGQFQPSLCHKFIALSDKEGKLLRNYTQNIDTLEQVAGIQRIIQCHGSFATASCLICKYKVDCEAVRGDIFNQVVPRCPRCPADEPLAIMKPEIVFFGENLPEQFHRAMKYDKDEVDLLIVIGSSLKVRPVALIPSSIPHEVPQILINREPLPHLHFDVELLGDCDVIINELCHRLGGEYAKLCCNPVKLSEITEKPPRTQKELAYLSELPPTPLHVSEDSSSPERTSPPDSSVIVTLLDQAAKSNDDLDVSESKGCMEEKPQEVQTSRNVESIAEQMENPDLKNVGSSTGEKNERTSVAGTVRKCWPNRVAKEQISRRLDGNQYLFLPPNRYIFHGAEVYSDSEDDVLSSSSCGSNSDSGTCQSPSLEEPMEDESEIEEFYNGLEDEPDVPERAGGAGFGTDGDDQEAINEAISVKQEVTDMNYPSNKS
# Experiment: Trp mass spectrometry assay of SIRT1 activation
# Format: biochemical
# Details: Trp peptide Ac-R-H-K-K(Ac)-W-NH2 0.5 μM, 120 μM βNAD+, 10 nM SIRT1, 25 min, 25° C.
# Description: Mass spectrometry based assays were used to identify modulators of SIRT1 activity. […] The peptide was labeled with the fluorophore 5TMR (excitation 540 nm/emission 580 nm) at the C-terminus. The sequence of the peptide substrate was based on p53 with several modifications. In addition, the methionine residue naturally present in the sequence was replaced with the norleucine because the methionine may be susceptible to oxidation during synthesis and purification.
# The Trp mass spectrometry assay was conducted as follows. […] The SIRT1 protein was obtained by cloning the SirT1 gene into a T7-promoter containing vector, which was then expressed in BL21(DE3) bacterial cells and purified as described in further detail below. Test compound was added at varying concentrations to this reaction mixture and the resulting reactions were monitored. After the 25 minute incubation with SIRT1, 10 μL of 10% formic acid was added to stop the reaction. The resulting reactions were sealed and frozen for later mass spec analysis. The relative SIRT1 activity was then determined by measuring the amount of O-acetyl-ADP-ribose (OAADPR) formed (or, alternatively, the amount of deacetylated Trp peptide generated) by the NAD-dependent sirtuin deacetylation reaction in the presence of varying concentrations of the test compound versus control reactions lacking the test compound.
# The degree to which the test agent activated deacetylation by SIRT1 was expressed as EC1.5 (i.e., the concentration of compound required to increase SIRT1 activity by 50% over the control lacking test compound), and Percent Maximum Activation (i.e., the maximum activity relative to control (100%) obtained for the test compound).
# This time point was the same as that used for test compounds and, within the linear range, the endpoint represents a change in velocity.
# For the above assay, SIRT1 protein was expressed and purified as follows. The SirT1 gene was cloned into a T7-promoter containing vector and transformed into BL21(DE3). The protein was expressed by induction with 1 mM IPTG as an N-terminal His-tag fusion protein at 18° C. overnight and harvested at 30,000×g. Cells were lysed with lysozyme in lysis buffer (50 mM Tris-HCl, 2 mM Tris[2-carboxyethyl]phosphine (TCEP), 10 μM ZnCl2, 200 mM NaCl) and further treated with sonication for 10 min for complete lysis. The protein was purified over a Ni-NTA column (Amersham) and fractions containing pure protein were pooled, concentrated and run over a sizing column (Sephadex S200 26/60 global). The peak containing soluble protein was collected and run on an Ion-exchange column (MonoQ). Gradient elution (200 mM-500 mM NaCl) yielded pure protein. This protein was concentrated and dialyzed against dialysis buffer (20 mM Tris-HCl, 2 mM TCEP) overnight. The protein was aliquoted and frozen at −80° C. until further use.
# “NT” means not tested; “ND” means not determinable.
Structure (SMILES),"TRP Activity (EC1.5, concentration of compound required to increase SIRT1 activity by 50% over control)",TRP MAX RESP (percent maximum fold activation relative to control)
"O=C(Nc1cncc(OC[C@H](O)CO)n1)N1c2nc(-c3cccc(C(F)(F)F)c3)ncc2N2CCC[C@H]1C2 [Example 95, (9S)—N-(6-((R)-2,3-dihydroxypropoxy)pyrazin-2-yl)-2-(3-(trifluoromethyl)phenyl)-8,9-dihydro-6H-5,9-methanopyrimido[4,5-b][1,4]diazocine-10(7H)-carboxamide]",A (EC1.5<1 μM),A (Fold activation ≥150%)
"Cc1ncc(-c2ccnc(NC(=O)N3c4nc(C(=O)N[C@H](C)C(F)(F)F)ncc4N4CC[C@H]3C4)c2)o1 [Example 115, (8S)—N9-(4-(2-methyloxazol-5-yl)pyridin-2-yl)-N2-((R)-1,1,1-trifluoropropan-2-yl)-7,8-dihydro-5,8-methanopyrimido[4,5-b][1,4]diazepine-2,9(6H)-dicarboxamide]",B (EC1.5 1-25 μM),A (Fold activation ≥150%)
"CN(C)c1cc(-c2ncc3c(n2)N(C(=O)Nc2ccccn2)[C@H]2CCN3C2)ccn1 [Example 11, (8S)-2-(2-(dimethylamino)pyridin-4-yl)-N-(pyridin-2-yl)-7,8-dihydro-5,8-methano pyrimido[4,5-b][1,4]diazepine-9(6H)-carboxamide]",B (EC1.5 1-25 μM),
"Cc1nc(-c2cccc(C(F)(F)F)c2)nc2c1N1CC[C@@H](C1)N2C(=O)Nc1ccc(OC[C@H](O)CO)cn1 [Example 48, (8S)—N-(5-((R)-2,3-dihydroxypropoxy)pyridin-2-yl)-4-methyl-2-(3-(trifluoromethyl)phenyl)-7,8-dihydro-5,8-methanopyrimido[4,5-b][1,4]diazepine-9(6H)-carboxamide]",B (EC1.5 1-25 μM),A (Fold activation ≥150%)
"O=C(Nc1cncc(OC[C@H](O)CO)c1)N1c2nc(-c3cccc(C(F)(F)F)c3)ncc2N2CC[C@H]1C2 [Example 35, (8S)—N-(5-((R)-2,3-dihydroxypropoxy)pyridin-3-yl)-2-(3-(trifluoromethyl)phenyl)-7,8-dihydro-5,8-methanopyrimido[4,5-b][1,4]diazepine-9(6H)-carboxamide]",B (EC1.5 1-25 μM),A (Fold activation ≥150%)
"C[C@@H](NC(=O)c1ncc2c(n1)N(C(=O)Nc1ccc(OC[C@@H](O)CO)cn1)[C@H]1CCCN2C1)C(F)(F)F [Example 119, (9S)—N10-(5-((S)-2,3-dihydroxypropoxy)pyridin-2-yl)-N2-((R)-1,1,1-trifluoropropan-2-yl)-8,9-dihydro-6H-5,9-methanopyrimido[4,5-b][1,4]diazocine-2,10(7H)-dicarboxamide]",A (EC1.5<1 μM),A (Fold activation ≥150%)
"O=C(Nc1ccc(OC[C@H](O)CO)cn1)N1c2nc(-c3cccc(C(F)(F)F)c3)ncc2N2CC[C@H]1C2 [Example 40, (8S)—N-(5-((R)-2,3-dihydroxypropoxy)pyridin-2-yl)-2-(3-(trifluoromethyl)phenyl)-7,8-dihydro-5,8-methanopyrimido[4,5-b][1,4]diazepine-9(6H)-carboxamide]",A (EC1.5<1 μM),A (Fold activation ≥150%)
"Cc1ncc(-c2ccnc(NC(=O)N3c4nc(C(=O)N[C@H](C)C(F)(F)F)nc(C)c4N4CCC[C@H]3C4)c2)o1 [Example 71, (9S)-4-methyl-N10-(4-(2-methyloxazol-5-yl)pyridin-2-yl)-N2-((R)-1,1,1-trifluoropropan-2-yl)-8,9-dihydro-6H-5,9-methanopyrimido[4,5-b][1,4]diazocine-2,10(7H)-dicarboxamide]",A (EC1.5<1 μM),A (Fold activation ≥150%)

# More lines, now with the values ahead:
"TRP Activity (EC1.5, concentration of compound required to increase SIRT1 activity by 50% over control)",TRP MAX RESP (percent maximum fold activation relative to control),Structure (SMILES)
A (EC1.5<1 μM),A (Fold activation ≥150%),"O=C(Nc1ccnc(OC[C@@H](O)CO)c1)N1c2nc(-c3cccc(C(F)(F)F)c3)ncc2N2CCC[C@H]1C2 [Example 85, (9S)—N-(2-((S)-2,3-dihydroxypropoxy)pyridin-4-yl)-2-(3-(trifluoromethyl)phenyl)-8,9-dihydro-6H-5,9-methanopyrimido[4,5-b][1,4]diazocine-10(7H)-carboxamide]"
A (EC1.5<1 μM),A (Fold activation ≥150%),"O=C(Nc1cccc(OC[C@H](O)CO)n1)N1c2nc(-c3cccc(C(F)(F)F)c3)ncc2N2CCC[C@H]1C2 [Example 89, (9S)—N-(6-((R)-2,3-dihydroxypropoxy)pyridin-2-yl)-2-(3-(trifluoromethyl)phenyl)-8,9-dihydro-6H-5,9-methanopyrimido[4,5-b][1,4]diazocine-10(7H)-carboxamide]"
A (EC1.5<1 μM),A (Fold activation ≥150%),"O=C(Nc1cc(OC[C@H](O)CO)ccn1)N1c2nc(-c3cccc(C(F)(F)F)c3)ncc2N2CCC[C@H]1C2 [Example 80, (9S)—N-(4-((R)-2,3-dihydroxypropoxy)pyridin-2-yl)-2-(3-(trifluoromethyl)phenyl)-8,9-dihydro-6H-5,9-methanopyrimido[4,5-b][1,4]diazocine-10(7H)-carboxamide]"
A (EC1.5<1 μM),A (Fold activation ≥150%),"O=C(Nc1ccc(OC[C@H](O)CO)nc1)N1c2nc(-c3cccc(C(F)(F)F)c3)ncc2N2CC[C@H]1C2 [Example 39, (8S)—N-(6-((R)-2,3-dihydroxypropoxy)pyridin-3-yl)-2-(3-(trifluoromethyl)phenyl)-7,8-dihydro-5,8-methanopyrimido[4,5-b][1,4]diazepine-9(6H)-carboxamide]"
A (EC1.5<1 μM),A (Fold activation ≥150%),"O=C(Nc1cc(OC[C@@H](O)CO)ccn1)N1c2nc(-c3cccc(C(F)(F)F)c3)ncc2N2CCC[C@H]1C2 [Example 91, (9S)—N-(4-((S)-2,3-dihydroxypropoxy)pyridin-2-yl)-2-(3-(trifluoromethyl)phenyl)-8,9-dihydro-6H-5,9-methanopyrimido[4,5-b][1,4]diazocine-10(7H)-carboxamide]"
B (EC1.5 1-25 μM),A (Fold activation ≥150%),"O=C(Nc1nccc(OC[C@@H](O)CO)n1)N1c2nc(-c3cccc(C(F)(F)F)c3)ncc2N2CC[C@H]1C2 [Example 51, (8S)—N-(4-((S)-2,3-dihydroxypropoxy)pyrimidin-2-yl)-2-(3-(trifluoromethyl)phenyl)-7,8-dihydro-5,8-methanopyrimido[4,5-b][1,4]diazepine-9(6H)-carboxamide]"
